Laboratory results as given in patent publication US7790461B2, “Nano-emulsion technology for drug elution” (Medtronic MiniMed, Inc., priority 2007, dated 2010).

Columns and labels:
[1] = 0.022 mg/mL
Description: To evaluate buffers with different pH, eleven milligrams of Dexamethasone Acetate was dissolved in 500 mL of media (different pH adjusted buffers).

[2] = Stability of drug in elution media; type: physicochemical; settings: length of the study
Description: The mobile phase preparation and choice of the column were instructed in the Dexamethasone Acetate monograph USP29-NF24. The mobile phase A consisted of pH 4.1 formate buffer and acetonitrile (3:2), and mobile phase B consisted of pH 4.1 formate buffer and acetonitrile (9:1). The chromatographic column (USP L11) used was an Agilent Zorbax SB-Phenyl, 4.6 mm×250 mm, 5 μm. A gradient was used with 1 mL/min flow rate. The run time was about 70 minutes. […] The injection volume for standard and samples was 100 μL.

stability with respect to pH (order) [1]: pH 3>pH 5≅acetate pH 5.7>water>pH 7>pH 9
stability in the media [2]: stable
Compound: CC(=O)OCC(=O)[C@@]1(O)[C@H](C)C[C@H]2[C@@H]3CCC4=CC(=O)C=C[C@]4(C)[C@@]3(F)[C@@H](O)C[C@@]21C [Dexamethasone Acetate]
